We go through one sequence from US20140227311A1, “Method for Removing Immunosuppressive Properties of HIV Envelope Glycoproteins” (priority 2011, published 2014).

The experiment deals with CTLL-2 cells. It is filed as cell-based. The note with it: dimerized peptides (disulfide); 24 h; wt effect at concentrations of 75 or 100 uM; FIG. 1.

Ends that are not written are not given here.

Turning to “LQARILAVERYLKDQQLLGIWGCGGEKEKEK (also: dimerized) [wt ISD, dimerized wild-type ISD peptide with GGEKEKEK tail]”, the “inhibition of the proliferation of CTLL2 cells” value is listed as “inhibits the proliferation of the CTLL2 cells at concentrations of 75 or 100 uM”.
